Laboratory results as given in patent US20230190685A1, “FORMULATION” (UNION Therapeutics A/S, priority 2020, published 2023).

Experiments:
Assay type in all cases: cell-based
[1] = system: SARS-CoV-2 (D614G strain); details: read-out: EC50, replication of SARS-CoV-2
[2] = system: SARS-CoV-2 D614G strain
[3] = system: European D614G strain of SARS-CoV-2 (BavPat1/2020)

O=C(Nc1ccc([N+](=O)[O-])cc1Cl)c1cc(Cl)ccc1O [niclosamide ethanolamine]
EC50 [1]: 100 nM | EC50 [2]: 60 nM | reduction of intracellular viral RNA level versus non-treated control [3]: 3 fold | EC50 ([3]; read-out: EC50, apical infectious titer (TCID50)): 960 nM
